One assay relates to prostate cancer. Put plainly: Treatment of patients with prostate cancer (Working Examples). The class given is in vivo, human.
In assay [1] the target is T1, androgen receptor protein (Homo sapiens, UniProt P10275).
T1 construct: purchased Cambridge Bioscience, England
T1 sequence (P10275 1-920): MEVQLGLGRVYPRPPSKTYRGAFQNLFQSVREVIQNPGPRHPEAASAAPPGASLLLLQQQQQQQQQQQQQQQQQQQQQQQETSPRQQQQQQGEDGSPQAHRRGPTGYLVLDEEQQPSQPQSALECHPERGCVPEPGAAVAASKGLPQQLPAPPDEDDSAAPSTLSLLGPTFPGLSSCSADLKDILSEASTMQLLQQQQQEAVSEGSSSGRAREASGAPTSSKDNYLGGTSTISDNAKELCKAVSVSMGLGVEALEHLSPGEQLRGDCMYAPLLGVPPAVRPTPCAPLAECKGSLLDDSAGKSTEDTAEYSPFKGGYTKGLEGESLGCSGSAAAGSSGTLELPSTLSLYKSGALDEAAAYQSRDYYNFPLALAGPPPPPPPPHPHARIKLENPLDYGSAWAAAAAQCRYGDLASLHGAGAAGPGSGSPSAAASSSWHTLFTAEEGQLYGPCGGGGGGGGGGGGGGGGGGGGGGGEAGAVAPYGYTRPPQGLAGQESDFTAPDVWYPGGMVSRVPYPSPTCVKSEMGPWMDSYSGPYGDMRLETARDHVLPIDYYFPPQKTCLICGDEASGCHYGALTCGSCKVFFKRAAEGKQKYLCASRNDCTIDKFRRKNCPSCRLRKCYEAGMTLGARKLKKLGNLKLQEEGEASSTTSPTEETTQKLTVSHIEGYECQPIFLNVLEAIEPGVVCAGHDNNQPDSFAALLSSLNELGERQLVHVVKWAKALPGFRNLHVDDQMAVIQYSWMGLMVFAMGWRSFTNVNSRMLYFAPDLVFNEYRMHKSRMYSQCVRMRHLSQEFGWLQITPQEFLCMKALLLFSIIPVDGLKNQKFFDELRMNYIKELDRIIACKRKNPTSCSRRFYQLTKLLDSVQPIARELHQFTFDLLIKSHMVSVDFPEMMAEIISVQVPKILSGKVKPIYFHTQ
Put plainly: S-nitrosylation of purified androgen receptor, biotin switch assay. It counts as biochemical. As to conditions: anaerobic conditions; GSH as control. The text has this:
Purified androgen receptor protein (obtained from Cambridge Bioscience, England) was exposed to nitric oxide by means of contact with nitrosoglutathione (GSNO) under anaerobic conditions. Glutathione (GSH) was used as a control. […] Cell Biol 3, 193-197 (2001).

For another assay, the system named is breast cancer. Put plainly: Treatment of patient with breast cancer (Working Example X). The class given is in vivo, human. As to conditions: person, 40 mg PO BID, over 6 months.
The next assay concerns LNCaP cells. The settings on record: 5-10 nmol/L, 48 hours, wild type cells. Here is the method:
(§1) Cell proliferation was determined in cellular assays carried out as follows:
(§2) LNCaP cells (obtained from ATCC) and seeded at 2.5×10^4/well were incubated in charcoal-stripped serum for 24-48 hours prior to stimulation with DHT (5-10 nmole/L) for an additional 48 hours. The number of viable cells (that exclude trypan blue) was counted using a light microscope and a hemocytometer.

In assay [2] the test system is e-NOS overexpressing prostate cancer cells. The settings on record: 5-10 nmol/L. The procedure:
as §1, §2

Another assay has as its system androgen receptor. The settings on record: stimulated 24 hours.
The test system of assay [3] is PSA protein expression in LNCaP cells. Put plainly: PSA protein expression in LNCaP cells (immunoblot). It counts as cell-based. As to conditions: nitric oxide synthesis inhibited; DHT 10 nmol/L 24 hours. Here is the method:
The experiments of Background Example 4 were repeated but instead of determining androgen receptor activation, PSA level was measured by PSA protein expression in LNCaP cells. LNCaP cells were incubated in phenol red-free RPMI cell culture medium containing 5% charcoal-stripped fetal bovine serum (CSS) for 48 hours and then treated with dihydrotestosterone (DHT) (10 nmol/L) or vehicle control (ethanol) for 24 hours. Immunoblots were conducted using anti-PSA antibodies to measure PSA protein expression. Same filters were immunoblotted using anti-actin antibodies as control to establish equal loading of proteins.
(In western blotting, separated proteins are transferred to a membrane and probed.)

Each structure is given as a SMILES string.

For the compound `O=[N+]([O-])OCC(CO[N+](=O)[O-])O[N+](=O)[O-]` [nitroglycerin], the “progression of the disease measured by PSA and bony metastases” value in the assay with prostate cancer (topical 0.8 mg/hour, after progression on busaralin) is “slows”.
On to `CCNC(=O)[C@@H]1CCCN1C(=O)[C@H](CCCNC(=N)N)NC(=O)[C@H](CC(C)C)NC(=O)[C@@H](COC(C)(C)C)NC(=O)[C@H](Cc1ccc(O)cc1)NC(=O)[C@H](CO)NC(=O)[C@H](Cc1c[nH]c2ccccc12)NC(=O)[C@H](Cc1cnc[nH]1)NC(=O)[C@@H]1CCC(=O)N1` [busaralin], for which the disease course entry in the assay with prostate cancer (person with body metastases, busaralin treatment) is recorded as “the disease progresses”.
Take `N[C@@H](CCC(=O)N[C@@H](CSN=O)C(=O)NCC(=O)O)C(=O)O` [nitrosoglutathione]: the “S-nitrosylation of androgen receptor” value in assay [1] is “S-Nitrosylation of androgen receptor was detected”. This compound also gave a PSA level decrease in the assay with prostate cancer (human, in vivo, po) of 50%.
In the assay with prostate cancer (person, 40 mg PO BID, 3 months), `O=[N+]([O-])O[C@@H]1CO[C@H]2[C@@H]1OC[C@@H]2O` [isosorbide mononitrate] showed a PSA level decline of 50%. The lung metastases result with breast cancer was “regress”.
In the case of `C[C@]12CCC(=O)C[C@@H]1CC[C@@H]1[C@@H]2CC[C@]2(C)[C@@H](O)CC[C@@H]12` [androgen, dihydrotestosterone], the cell growth result in the assay on LNCaP cells is “increased cell growth”; in assay [2], “no effect on cell growth”. In addition, the “androgen receptor activation by androgen (control case)” value in the assay with androgen receptor is “activated androgen receptor”.
For `N[C@H](CCC(=O)N[C@H](CS)C(=O)NCC(=O)O)C(=O)O` [D-glutathione], the PSA level drop in the assay on prostate cancer (person, 150 mg orally 4 times/day, over 4 months) is 50%.
Consider `O=[N+]([O-])O[C@H]1CO[C@H]2[C@@H]1OC[C@H]2O[N+](=O)[O-]` [isosorbide dinitrate], for which, in the assay on prostate cancer (person, 20 mg PO BID, over 3 months), the PSA level entry is given as “stabilizes”.
As for `COC(=O)[C@@H](N)CCCNC(=N)N[N+](=O)[O-]` [L-NAME], the PSA expression result in assay [3] was “more PSA was expressed”.

The values are drawn from patent US20080025972A1, “Treating sex steriod responsive disorders” (priority 2006, published 2008).
